Literature values, collected in patent publication US20160089381A1, “STABILITY OF PROGESTOGEN FORMULATIONS” (Novo Nordisk HealthCare AG, priority 2003, published 2016).

System: endometrium
Details: dose equivalent to 1 mg NETA

| Structure (SMILES) | Endometrium transformation dosage |
| --- | --- |
| CC(=O)O[C@]1(C(C)=O)CC[C@H]2[C@@H]3C[C@H](C)C4=CC(=O)CC[C@]4(C)[C@H]3CC[C@@]21C [medroxyprogestogen acetate] | 5 mg |
| CC(=O)O[C@]1(C(C)=O)CC[C@H]2[C@@H]3C=C(Cl)C4=CC(=O)[C@@H]5C[C@@H]5[C@]4(C)[C@H]3CC[C@@]21C [cyproterone acetate] | 1 mg |
